This note sets out measurements from patent US8865623B2, “Herbicidally active cyclic diones and derivatives thereof, processes for their preparation, compositions, and method of controlling weeds” (Syngenta Limited, priority 2009, dated 2014).

Assay type in all cases: in vivo
Assay [1] concerns Alopecurus myosuroides (ALOMY). As to the kind of experiment: Post-emergence herbicidal activity, glasshouse pot test. The settings on record: Alopecurus myosuroides, 312 h, rate 250 g/ha, evaluated after 13 days, read-out: Post-emergence activity ALOMY (100=total damage to plant; 0=no damage to plant). The procedure, abridged: (§1)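 Sow seeds in standard soil in pots; grow 1 day (pre-emergence) or 8 days (post-emergence) at 24/16° C, 14 h light, 65% humidity. Spray aqueous solution from acetone/water 50:50 + 0.5% Tween 20 formulation. Grow on, watering twice daily; score damage 0–100 after 13 days.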

Assay [2] concerns Avena fatua (AVEFA). Described as above. The settings on record: Avena fatua, 312 h, rate 250 g/ha, evaluated after 13 days, read-out: Post-emergence activity AVEFA (100=total damage to plant; 0=no damage to plant). Put shortly: as §1
Assay [3] deals with Echinochloa crus-galli (ECHCG). The assay is described as above. The conditions noted are these: Echinochloa crus-galli, 312 h, rate 250 g/ha, evaluated after 13 days, read-out: Post-emergence activity ECHCG (100=total damage to plant; 0=no damage to plant). Put shortly: as §1
The test system of assay [4] is Lolium perenne (LOLPE). The assay is described as above. The conditions noted are these: Lolium perenne, 312 h, rate 250 g/ha, evaluated after 13 days, read-out: Post-emergence activity LOLPE (100=total damage to plant; 0=no damage to plant). The procedure, abridged: as §1
Assay [5] deals with Alopecurus myosuroides (ALOMY). The assay is described as follows: Pre-emergence herbicidal activity, glasshouse pot test. The conditions noted are these: Alopecurus myosuroides, 312 h, Rate 250 g/ha, evaluated after 13 days, read-out: Pre-emergence activity ALOMY (100=total damage to plant; 0=no damage to plant). The procedure, abridged: as §1
Assay [6] deals with Avena fatua (AVEFA). The description is as above. The settings on record: Avena fatua, 312 h, Rate 250 g/ha, evaluated after 13 days, read-out: Pre-emergence activity AVEFA (100=total damage to plant; 0=no damage to plant). The procedure, abridged: as §1
For assay [7], the system named is Echinochloa crus-galli (ECHCG). Described as above. The settings on record: Echinochloa crus-galli, 312 h, Rate 250 g/ha, evaluated after 13 days, read-out: Pre-emergence activity ECHCG (100=total damage to plant; 0=no damage to plant). The procedure, abridged:
as §1

Assay [8] concerns Lolium perenne (LOLPE). The assay is described as above. The conditions noted are these: Lolium perenne, 312 h, Rate 250 g/ha, evaluated after 13 days, read-out: Pre-emergence activity LOLPE (100=total damage to plant; 0=no damage to plant). Put shortly:
as §1

On to `CCc1ccc(Oc2ccc3cc(Cl)ccc3n2)cc1C1=C(O)CC2(CCOCC2)CC1=O` [Example A-191], for which the pest or weed control at 250 g/ha in assay [1] (glasshouse) amounted to 100%; with Avena fatua (AVEFA) [2] (glasshouse), 100%; in assay [3] (glasshouse), 100%; in the assay on Lolium perenne (LOLPE) [4] (glasshouse) it was 100%; in assay [5] (pre-emergence spray) it was 40%; in the assay with Avena fatua (AVEFA) [6] (pre-emergence spray), 40%. The results for the pest or weed control at 250 g/ha (in assay [7] (pre-emergence spray); in the assay on Lolium perenne (LOLPE) [8] (pre-emergence spray)) were 90% and 60%, respectively.
In the case of `CCc1ccc(Oc2ccc(C(F)(F)F)c(Cl)c2)cc1C1=C(O)CC(C)(C)CC1=O` [Example A-283], the pest or weed control at 250 g/ha came to 80% in assay [1] (glasshouse); 90% with Avena fatua (AVEFA) [2] (glasshouse); 90% in assay [3] (glasshouse); 90% with Lolium perenne (LOLPE) [4] (glasshouse); 70% in assay [5] (pre-emergence spray); 10% in the assay with Avena fatua (AVEFA) [6] (pre-emergence spray). For the same compound, the results for the pest or weed control at 250 g/ha (in assay [7] (pre-emergence spray); in the assay on Lolium perenne (LOLPE) [8] (pre-emergence spray)) were 90% and 60%, respectively.
Consider `CCc1ccc(Oc2ccc(Br)cc2F)cc1C1=C(O)CCC(C)(C)C1=O` [Example A-114], for which the pest or weed control at 250 g/ha in assay [1] (glasshouse) worked out at 10%; in the assay on Avena fatua (AVEFA) [2] (glasshouse), 10%; in assay [3] (glasshouse), 80%; with Lolium perenne (LOLPE) [4] (glasshouse) it was 50%; in assay [5] (pre-emergence spray), 20%; in the assay with Avena fatua (AVEFA) [6] (pre-emergence spray), 50%. For the same compound, the values for the pest or weed control at 250 g/ha (in assay [7] (pre-emergence spray); with Lolium perenne (LOLPE) [8] (pre-emergence spray)) were 60% and 90%, respectively.
On to `CCc1ccc(Oc2cccc(Br)c2)cc1C1=C(O)C(C)(C)OC(C)(C)C1=O` [Example A-32], for which the pest or weed control at 250 g/ha in assay [1] (glasshouse) came out at 30%; in the assay with Avena fatua (AVEFA) [2] (glasshouse), 20%; in assay [3] (glasshouse), 100%; in the assay on Lolium perenne (LOLPE) [4] (glasshouse) it was 40%; in assay [5] (pre-emergence spray) it was 30%; with Avena fatua (AVEFA) [6] (pre-emergence spray), 20%. Moreover, the pest or weed control at 250 g/ha was determined as 90% in assay [7] (pre-emergence spray) and 80% with Lolium perenne (LOLPE) [8] (pre-emergence spray).
In the case of `CCc1ccc(Oc2cccc(C(F)(F)F)c2)cc1C1=C(O)C(C)(C)OC(C)(C)C1=O` [Example A-185], the pest or weed control at 250 g/ha in assay [1] (glasshouse) came to 20%; in the assay on Avena fatua (AVEFA) [2] (glasshouse), 20%; in assay [3] (glasshouse), 70%; in the assay with Lolium perenne (LOLPE) [4] (glasshouse) it was 30%; in assay [5] (pre-emergence spray), 0%; in the assay on Avena fatua (AVEFA) [6] (pre-emergence spray), 0%. Further, the pest or weed control at 250 g/ha in assay [7] (pre-emergence spray) was 30%; with Lolium perenne (LOLPE) [8] (pre-emergence spray), 0%.
Consider `CCc1ccc(Oc2ccc(Cl)cn2)cc1C1=C(O)CC(C)(C)CC1=O` [Example A-301], for which the pest or weed control at 250 g/ha in assay [1] (glasshouse) came out at 100%; in the assay on Avena fatua (AVEFA) [2] (glasshouse), 60%; in assay [3] (glasshouse) it was 100%; in the assay on Lolium perenne (LOLPE) [4] (glasshouse) it was 90%; in assay [5] (pre-emergence spray), 70%; in the assay with Avena fatua (AVEFA) [6] (pre-emergence spray), 60%. Also, the pest or weed control at 250 g/ha (in assay [7] (pre-emergence spray); in the assay with Lolium perenne (LOLPE) [8] (pre-emergence spray)) was 100% throughout.
As to `CCc1ccc(Oc2ccc(F)c(Cl)c2)cc1C1=C(O)C(C)(C)OC(C)(C)C1=O` [Example A-24], the pest or weed control at 250 g/ha came out at 70% in assay [1] (glasshouse); 70% in the assay with Avena fatua (AVEFA) [2] (glasshouse); 100% in assay [3] (glasshouse); 70% in the assay on Lolium perenne (LOLPE) [4] (glasshouse); 30% in assay [5] (pre-emergence spray); 40% with Avena fatua (AVEFA) [6] (pre-emergence spray). The pest or weed control at 250 g/ha (in assay [7] (pre-emergence spray); in the assay with Lolium perenne (LOLPE) [8] (pre-emergence spray)) was 90% in each case.
On to `CCc1ccc(Oc2cc(F)cc(F)n2)cc1C1=C(O)C(C)(C)OC(C)(C)C1=O` [Example A-156], for which the pest or weed control at 250 g/ha worked out at 30% in assay [1] (glasshouse); 20% in the assay on Avena fatua (AVEFA) [2] (glasshouse); 50% in assay [3] (glasshouse); 20% with Lolium perenne (LOLPE) [4] (glasshouse); 20% in assay [5] (pre-emergence spray); 0% in the assay on Avena fatua (AVEFA) [6] (pre-emergence spray). Also, the pest or weed control at 250 g/ha in assay [7] (pre-emergence spray) is 60%; with Lolium perenne (LOLPE) [8] (pre-emergence spray), 20%.
For `CCc1ccc(Oc2ccc(Br)c(Cl)c2)cc1C1=C(O)C(C)(C)OC(C)(C)C1=O` [Example A-10], the pest or weed control at 250 g/ha was found to be 100% in assay [1] (glasshouse); 90% in the assay with Avena fatua (AVEFA) [2] (glasshouse); 100% in assay [3] (glasshouse); 100% with Lolium perenne (LOLPE) [4] (glasshouse); 0% in assay [5] (pre-emergence spray); 20% in the assay on Avena fatua (AVEFA) [6] (pre-emergence spray). Besides, the pest or weed control at 250 g/ha turned out to be 90% in assay [7] (pre-emergence spray) and 30% in the assay with Lolium perenne (LOLPE) [8] (pre-emergence spray).
`CCc1ccc(Oc2ccc(C(F)(F)F)cc2[N+](=O)[O-])cc1C1=C(O)[C@@H]2CC[C@](C)(C1=O)C2(C)C` [Example A-327]: the pest or weed control at 250 g/ha came out at 80% in assay [1] (glasshouse); 90% in the assay on Avena fatua (AVEFA) [2] (glasshouse); 100% in assay [3] (glasshouse); 70% with Lolium perenne (LOLPE) [4] (glasshouse); 70% in assay [5] (pre-emergence spray); 20% with Avena fatua (AVEFA) [6] (pre-emergence spray). The pest or weed control at 250 g/ha in assay [7] (pre-emergence spray) was found to be 100%; in the assay with Lolium perenne (LOLPE) [8] (pre-emergence spray), 90%.
With `CCc1ccc(Oc2cccc(Br)c2)cc1C1=C(O)[C@H]2CC[C@H](C2)C1=O` [Example A-245], the pest or weed control at 250 g/ha is 0% in assay [1] (glasshouse); 10% in the assay on Avena fatua (AVEFA) [2] (glasshouse); 80% in assay [3] (glasshouse); 20% with Lolium perenne (LOLPE) [4] (glasshouse); 0% in assay [5] (pre-emergence spray); 0% with Avena fatua (AVEFA) [6] (pre-emergence spray). The pest or weed control at 250 g/ha came to 80% in assay [7] (pre-emergence spray) and 50% in the assay with Lolium perenne (LOLPE) [8] (pre-emergence spray).
As to `CC1(C)OC(C)(C)C(O)=C(c2cc(Oc3ccc(Br)cc3)ccc2C2CC2)C1=O` [Example A-351], the pest or weed control at 250 g/ha amounted to 90% in assay [1]; 10% with Avena fatua (AVEFA) [2]; 100% in assay [3]; 100% with Lolium perenne (LOLPE) [4]; 60% in assay [5] (pre-emergence); 10% in the assay on Avena fatua (AVEFA) [6] (pre-emergence). The pest or weed control at 250 g/ha is 100% in assay [7] (pre-emergence) and 90% in the assay on Lolium perenne (LOLPE) [8] (pre-emergence).
For the compound `CCc1ccc(Oc2cncc(Cl)n2)cc1C1=C(O)C(C)(C)OC(C)(C)C1=O` [Example A-102], the pest or weed control at 250 g/ha in assay [1] (glasshouse) is 10%; in the assay with Avena fatua (AVEFA) [2] (glasshouse), 0%; in assay [3] (glasshouse), 40%; with Lolium perenne (LOLPE) [4] (glasshouse), 20%; in assay [5] (pre-emergence spray), 0%; in the assay with Avena fatua (AVEFA) [6] (pre-emergence spray), 0%. Further, the figures for the pest or weed control at 250 g/ha (in assay [7] (pre-emergence spray); with Lolium perenne (LOLPE) [8] (pre-emergence spray)) were 10% and 20%, respectively.
In the case of `CC1(C)OC(C)(C)C(O)=C(c2cc(Oc3ccc(Cl)cc3)ccc2OC(F)(F)F)C1=O` [Example A-302], the pest or weed control at 250 g/ha in assay [1] (glasshouse) came to 60%; in the assay on Avena fatua (AVEFA) [2] (glasshouse), 50%; in assay [3] (glasshouse) it was 100%; in the assay on Lolium perenne (LOLPE) [4] (glasshouse), 70%; in assay [5] (pre-emergence spray), 10%; with Avena fatua (AVEFA) [6] (pre-emergence spray) it was 40%. Also, the pest or weed control at 250 g/ha in assay [7] (pre-emergence spray) is 60%; with Lolium perenne (LOLPE) [8] (pre-emergence spray) it was 20%.
As to `CCc1ccc(Oc2ccc(Cl)c(F)c2)cc1C1=C(O)[C@@H]2CC[C@](C)(C1=O)C2(C)C` (single isomer, unassigned) [Example A-93], the pest or weed control at 250 g/ha in assay [1] (glasshouse) is 60%; in the assay on Avena fatua (AVEFA) [2] (glasshouse), 20%; in assay [3] (glasshouse) it was 50%; with Lolium perenne (LOLPE) [4] (glasshouse), 20%; in assay [5] (pre-emergence spray) it was 60%; in the assay with Avena fatua (AVEFA) [6] (pre-emergence spray), 60%. The pest or weed control at 250 g/ha in assay [7] (pre-emergence spray) amounted to 100%; with Lolium perenne (LOLPE) [8] (pre-emergence spray), 90%.
